Test results reported in the NIST ThermoML archive (doi:10.1016/j.jct.2005.10.004).
Where “and” joins values, the source holds several entries; their conditions need not be identical. Equal values may be shown once. ± gives the expanded uncertainty stated by the source.

Assay: xn = mol fraction of the nth substance listed
Conditions: Gas, Buoyancy - hydrostatic balance with magnetic suspension - one sinker

N#N [nitrogen] + C
Conditions	mass density
299.91 K, 7416.3 kPa, x2 = 0.8	59.8697 ± 0.015 kg/m3
299.91 K, 7417.6 kPa, x2 = 0.8	59.8813 ± 0.015 kg/m3
299.91 K, 9999.1 kPa, x2 = 0.8	82.4744 ± 0.02 kg/m3
299.91 K, 10000 kPa, x2 = 0.8	82.4859 ± 0.02 kg/m3
299.91 K, 10001 kPa, x2 = 0.8	82.4925 ± 0.02 kg/m3
299.91 K, 12313 kPa, x2 = 0.8	102.883 ± 0.024 kg/m3
299.91 K, 12314 kPa, x2 = 0.8	102.89 ± 0.024 kg/m3
299.91 K, 14412 kPa, x2 = 0.8	121.138 ± 0.029 kg/m3 and 121.127 ± 0.029 kg/m3
299.91 K, 16342 kPa, x2 = 0.8	137.386 ± 0.032 kg/m3
299.91 K, 16343 kPa, x2 = 0.8	137.395 ± 0.032 kg/m3
299.92 K, 2421.7 kPa, x2 = 0.8	18.4741 ± 0.006 kg/m3
299.92 K, 4995 kPa, x2 = 0.8	39.3048 ± 0.0097 kg/m3
299.92 K, 9109.5 kPa, x2 = 0.8	74.6412 ± 0.018 kg/m3
299.99 K, 13043 kPa, x2 = 0.8998	105.072 ± 0.026 kg/m3
299.99 K, 15058 kPa, x2 = 0.8998	122.114 ± 0.03 kg/m3 and 122.112 ± 0.03 kg/m3
299.99 K, 17101 kPa, x2 = 0.8998	138.717 ± 0.033 kg/m3 and 138.72 ± 0.033 kg/m3
299.99 K, 19357 kPa, x2 = 0.8998	155.97 ± 0.038 kg/m3
299.99 K, 19358 kPa, x2 = 0.8998	155.975 ± 0.038 kg/m3
300 K, 899.61 kPa, x2 = 0.8998	6.30257 ± 0.0049 kg/m3
300 K, 2023 kPa, x2 = 0.8998	14.4126 ± 0.0056 kg/m3
300 K, 2023.1 kPa, x2 = 0.8998	14.4136 ± 0.0056 kg/m3
300 K, 2766.3 kPa, x2 = 0.8998	19.9248 ± 0.0062 kg/m3
300 K, 4003.3 kPa, x2 = 0.8998	29.3523 ± 0.0076 kg/m3
300 K, 4948.9 kPa, x2 = 0.8998	36.7656 ± 0.0091 kg/m3
300 K, 5998.7 kPa, x2 = 0.8998	45.1981 ± 0.011 kg/m3
300 K, 5998.9 kPa, x2 = 0.8998	45.2004 ± 0.011 kg/m3
300 K, 6904.7 kPa, x2 = 0.8	55.4385 ± 0.014 kg/m3
300 K, 6954.3 kPa, x2 = 0.8998	53.0353 ± 0.013 kg/m3
300 K, 8009.1 kPa, x2 = 0.8998	61.855 ± 0.015 kg/m3
300 K, 8009.7 kPa, x2 = 0.8998	61.8592 ± 0.015 kg/m3
300 K, 9029.6 kPa, x2 = 0.8998	70.5133 ± 0.017 kg/m3 and 70.5136 ± 0.017 kg/m3
300 K, 9030 kPa, x2 = 0.8998	70.5158 ± 0.017 kg/m3
300 K, 10050 kPa, x2 = 0.8998	79.2704 ± 0.019 kg/m3
300 K, 11034 kPa, x2 = 0.8998	87.7596 ± 0.021 kg/m3
300 K, 12063 kPa, x2 = 0.8998	96.6441 ± 0.023 kg/m3
300 K, 12064 kPa, x2 = 0.8998	96.6562 ± 0.023 kg/m3
300 K, 12996 kPa, x2 = 0.8998	104.673 ± 0.025 kg/m3
300 K, 14010 kPa, x2 = 0.8998	113.319 ± 0.027 kg/m3
300 K, 14012 kPa, x2 = 0.8998	113.335 ± 0.027 kg/m3
300 K, 16021 kPa, x2 = 0.8998	130.057 ± 0.031 kg/m3
300 K, 16023 kPa, x2 = 0.8998	130.071 ± 0.031 kg/m3
300 K, 17936 kPa, x2 = 0.8998	145.268 ± 0.034 kg/m3
300 K, 17939 kPa, x2 = 0.8998	145.292 ± 0.034 kg/m3
300 K, 20071 kPa, x2 = 0.8998	161.173 ± 0.038 kg/m3
300 K, 20074 kPa, x2 = 0.8998	161.19 ± 0.038 kg/m3
300.01 K, 19196 kPa, x2 = 0.8	160.005 ± 0.037 kg/m3
349.98 K, 2438.8 kPa, x2 = 0.8	15.6874 ± 0.0057 kg/m3
349.98 K, 4939.5 kPa, x2 = 0.8	32.1898 ± 0.0082 kg/m3
349.98 K, 17023 kPa, x2 = 0.8	112.695 ± 0.028 kg/m3
349.99 K, 2438.9 kPa, x2 = 0.8	15.6871 ± 0.0057 kg/m3
349.99 K, 4939.9 kPa, x2 = 0.8	32.193 ± 0.0082 kg/m3
349.99 K, 7493.5 kPa, x2 = 0.8	49.3399 ± 0.012 kg/m3
349.99 K, 7494.4 kPa, x2 = 0.8	49.3451 ± 0.012 kg/m3
349.99 K, 8821.7 kPa, x2 = 0.8	58.3187 ± 0.015 kg/m3
349.99 K, 8822.8 kPa, x2 = 0.8	58.3243 ± 0.015 kg/m3
349.99 K, 12241 kPa, x2 = 0.8	81.3717 ± 0.021 kg/m3
349.99 K, 12243 kPa, x2 = 0.8	81.3884 ± 0.021 kg/m3
349.99 K, 14938 kPa, x2 = 0.8	99.2371 ± 0.024 kg/m3
349.99 K, 14942 kPa, x2 = 0.8	99.2671 ± 0.024 kg/m3
349.99 K, 17029 kPa, x2 = 0.8	112.731 ± 0.028 kg/m3
350 K, 1986.4 kPa, x2 = 0.8998	11.9478 ± 0.0054 kg/m3
350 K, 1986.5 kPa, x2 = 0.8998	11.9485 ± 0.0054 kg/m3
350 K, 3975.2 kPa, x2 = 0.8998	24.2393 ± 0.0067 kg/m3
350 K, 5966.2 kPa, x2 = 0.8998	36.8151 ± 0.0092 kg/m3
350 K, 8018.7 kPa, x2 = 0.8998	49.9871 ± 0.012 kg/m3
350 K, 10026 kPa, x2 = 0.8998	62.975 ± 0.015 kg/m3
350 K, 12032 kPa, x2 = 0.8998	75.9524 ± 0.019 kg/m3
350 K, 12033 kPa, x2 = 0.8998	75.9539 ± 0.019 kg/m3
350 K, 13967 kPa, x2 = 0.8998	88.3679 ± 0.022 kg/m3
350 K, 13968 kPa, x2 = 0.8998	88.373 ± 0.022 kg/m3
350 K, 16066 kPa, x2 = 0.8998	101.591 ± 0.025 kg/m3
350 K, 16068 kPa, x2 = 0.8998	101.601 ± 0.025 kg/m3
350 K, 16070 kPa, x2 = 0.8998	101.613 ± 0.025 kg/m3
350 K, 16189 kPa, x2 = 0.8998	102.36 ± 0.026 kg/m3
350 K, 18024 kPa, x2 = 0.8998	113.606 ± 0.028 kg/m3
350 K, 19983 kPa, x2 = 0.8998	125.244 ± 0.031 kg/m3
350 K, 19984 kPa, x2 = 0.8998	125.244 ± 0.031 kg/m3
350.01 K, 8197.7 kPa, x2 = 0.8	54.0918 ± 0.013 kg/m3
350.01 K, 8197.9 kPa, x2 = 0.8	54.0933 ± 0.013 kg/m3
350.01 K, 10149 kPa, x2 = 0.8	67.2887 ± 0.017 kg/m3
350.01 K, 11859 kPa, x2 = 0.8	78.8049 ± 0.02 kg/m3
350.01 K, 11862 kPa, x2 = 0.8	78.8216 ± 0.02 kg/m3
400 K, 4571.9 kPa, x2 = 0.8	25.5965 ± 0.0071 kg/m3
400 K, 5986.1 kPa, x2 = 0.8998	31.5654 ± 0.008 kg/m3
400 K, 8029.2 kPa, x2 = 0.8998	42.4672 ± 0.01 kg/m3
400 K, 9750.2 kPa, x2 = 0.8	54.7419 ± 0.014 kg/m3
400 K, 12023 kPa, x2 = 0.8998	63.6651 ± 0.015 kg/m3
400 K, 13644 kPa, x2 = 0.8	76.2876 ± 0.019 kg/m3
400 K, 14030 kPa, x2 = 0.8998	74.1643 ± 0.018 kg/m3
400 K, 18095 kPa, x2 = 0.8998	94.8699 ± 0.023 kg/m3
400 K, 18098 kPa, x2 = 0.8998	94.8835 ± 0.023 kg/m3
400 K, 19369 kPa, x2 = 0.8998	101.162 ± 0.025 kg/m3
400.01 K, 2027.7 kPa, x2 = 0.8998	10.5861 ± 0.0053 kg/m3
400.01 K, 4038.9 kPa, x2 = 0.8998	21.2078 ± 0.0063 kg/m3
400.01 K, 4040.2 kPa, x2 = 0.8998	21.2133 ± 0.0063 kg/m3
400.01 K, 8029.4 kPa, x2 = 0.8998	42.4641 ± 0.01 kg/m3
400.01 K, 10035 kPa, x2 = 0.8998	53.1468 ± 0.013 kg/m3 and 53.1474 ± 0.013 kg/m3
400.01 K, 14024 kPa, x2 = 0.8998	74.1363 ± 0.018 kg/m3
400.01 K, 15973 kPa, x2 = 0.8998	84.171 ± 0.021 kg/m3
400.01 K, 15985 kPa, x2 = 0.8998	84.2306 ± 0.021 kg/m3
400.01 K, 19362 kPa, x2 = 0.8998	101.12 ± 0.025 kg/m3
400.07 K, 1968.6 kPa, x2 = 0.8	10.9663 ± 0.0053 kg/m3
400.07 K, 5054.8 kPa, x2 = 0.8	28.3114 ± 0.0076 kg/m3
400.07 K, 7579.8 kPa, x2 = 0.8	42.5457 ± 0.01 kg/m3
400.07 K, 7586.8 kPa, x2 = 0.8	42.5825 ± 0.01 kg/m3
400.07 K, 10122 kPa, x2 = 0.8	56.8069 ± 0.015 kg/m3
400.07 K, 10130 kPa, x2 = 0.8	56.8516 ± 0.015 kg/m3
400.07 K, 13112 kPa, x2 = 0.8	73.3611 ± 0.02 kg/m3
400.07 K, 13116 kPa, x2 = 0.8	73.3802 ± 0.02 kg/m3
400.07 K, 13262 kPa, x2 = 0.8	74.1822 ± 0.02 kg/m3
400.07 K, 15317 kPa, x2 = 0.8	85.3273 ± 0.021 kg/m3
400.07 K, 15324 kPa, x2 = 0.8	85.3629 ± 0.021 kg/m3
400.07 K, 17285 kPa, x2 = 0.8	95.7881 ± 0.025 kg/m3
400.07 K, 17324 kPa, x2 = 0.8	95.9938 ± 0.025 kg/m3
